In patent publication US20220062278A1, “SMALL MOLECULE INHIBITORS OF THE ANDROGEN RECEPTOR ACTIVITY AND/OR EXPRESSION AND USES THEREOF” (Arizona Board of Regents on Behalf of the Univeristy of …, priority 2018, published 2022) one finds inhibition and IC50 data, which are given here for 35 compounds.

The target in this assay is T1, AR (Homo sapiens, UniProt P10275).
T1 sequence (P10275 669-920 limits assumed): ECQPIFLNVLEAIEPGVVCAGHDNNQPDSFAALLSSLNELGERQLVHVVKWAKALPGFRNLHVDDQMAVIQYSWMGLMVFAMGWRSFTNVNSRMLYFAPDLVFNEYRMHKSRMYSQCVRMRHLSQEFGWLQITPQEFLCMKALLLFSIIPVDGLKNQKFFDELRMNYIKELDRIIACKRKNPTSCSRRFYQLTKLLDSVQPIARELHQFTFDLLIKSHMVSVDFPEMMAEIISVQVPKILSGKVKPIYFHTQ
In words: GeneBlazer assay, inhibition against AR activity. Particulars: Table II. It counts as cell-based. From the text:
Tables II, III and IV show % inhibition against AR activity at 10 μm within a GeneBlazer assay, and IC50 values (nM) in GeneBlazer assay.

For orientation: inhibition means the drop in the measured response relative to a control, in per cent. Broadly, the IC50 is the concentration at which inhibition is half-maximal.

Each structure is given as a SMILES string.

In the case of `Oc1cccc(CN2CCN(c3c(Cl)cncc3Cl)CC2)c1` [Compound 22, 3-((4-(3,5-dichloropyridin-4-yl)piperazin-1-yl)methyl)phenol], the inhibition at 10 µM was found to be 68.1%.

Regarding `CCCCn1nnnc1C(c1ccc(C)o1)N1CCN(c2c(Cl)cncc2Cl)CC1` (stereo not drawn) [Compound 48, 1-((1-butyl-1H-tetrazol-5-yl)(5-methylfuran-2-yl)methyl)-4-(3,5-dichloropyridin-4-yl)piperazine], the inhibition at 10 µM came out at 100%.

For the compound `CCCCn1nnnc1C(CCc1ccccc1)N1CCN(c2c(Cl)cncc2Cl)CC1` (stereo not drawn) [Compound 69, 1-(1-(1-butyl-1H-tetrazol-5-yl)-3-phenylpropyl)-4-(3,5-dichloropyridin-4-yl)piperazine], the inhibition at 10 µM was determined as 96%.

With `CCCCn1nnnc1C(c1cccc(F)c1)N1CCN(c2c(Cl)cncc2Cl)CC1` (stereo not drawn) [Compound 8], the inhibition at 10 µM came out at 95.3%.

On to `CCCCn1nnnc1C(c1ccccc1)N1CCN(c2c(Cl)cncc2Cl)CC1` (stereo not drawn) [Compound 4, 1-((1-butyl-1H-tetrazol-5-yl)(phenyl)methyl)-4-(3,5-dichloropyridin-4-yl)piperazine], for which the inhibition at 10 µM is 101%.

As to `CC(C)n1nnnc1C(c1cccc(O)c1)N1CCN(c2c(Cl)cncc2Cl)CC1` (stereo not drawn) [Compound 15, 3-((4-(3,5-dichloropyridin-4-yl)piperazin-1-yl)(1-isopropyl-1H-tetrazol-5-yl)methyl)phenol], the inhibition at 10 µM was determined as 86%.

As for `COc1ccc(C(c2nnnn2C(C)(C)C)N2CCN(c3c(Cl)cncc3Cl)CC2)cc1` (stereo not drawn) [Compound 33, 1-((1-(tert-butyl)-1H-tetrazol-5-yl)(4-methoxyphenyl)methyl)-4-(3,5-dichloropyridin-4-yl)piperazine], the inhibition at 10 µM amounted to 97.5%.

As to `CC(C)(C)n1nnnc1C(c1cccc(O)c1)N1CCN(C/C=C/c2ccccc2)CC1` (stereo not drawn) [Compound 68, (E)-3-((1-(tert-butyl)-1H-tetrazol-5-yl)(4-cinnamylpiperazin-1-yl)methyl)phenol], the inhibition at 10 µM amounted to 17.2%.

With `CCCCn1nnnc1C(c1cccc(O)c1)N1CCN(c2ccccc2F)CC1` (stereo not drawn) [Compound 65, 3-((1-butyl-1H-tetrazol-5-yl)(4-(2-fluorophenyl)piperazin-1-yl)methyl)phenol], the inhibition at 10 µM came to 79.8%.

`CC(C)(C)n1nnnc1C(c1ccc(C#N)cc1)N1CCN(c2c(Cl)cncc2Cl)CC1` (stereo not drawn) [Compound 35, 4-((1-(tert-butyl)-1H-tetrazol-5-yl)(4-(3,5-dichloropyridin-4-yl)piperazin-1-yl)methyl)benzonitrile]: the inhibition at 10 µM turned out to be 106%.

As for `COC(=O)Cn1nnnc1C(c1cccc(O)c1)N1CCN(c2c(Cl)cncc2Cl)CC1` (stereo not drawn) [Compound 53, Methyl 2-(5-((4-(3,5-dichloropyridin-4-yl)piperazin-1-yl)(3-hydroxyphenyl)methyl)-1H-tetrazol-1-yl)acetate], the inhibition at 10 µM is 72.4%.

For the compound `CCCCn1nnnc1C(c1cccc(O)c1)N1CCN(c2ccncc2)CC1` (stereo not drawn) [Compound 27, 3-((1-butyl-1H-tetrazol-5-yl)(4-(pyridin-4-yl)piperazin-1-yl)methyl)phenol], the inhibition at 10 µM came out at 1.04%.

Turning to `CCCCn1nnnc1C(c1cccc(O)c1)N1CCN(c2ncccc2C(F)(F)F)CC1` (stereo not drawn) [Compound 60, 3-((1-butyl-1H-tetrazol-5-yl)(4-(3-(trifluoromethyl)pyridin-2-yl)piperazin-1-yl)methyl)phenol], the inhibition at 10 µM came to 105%.

Turning to `CC(C)(C)n1nnnc1C(c1cc2ccccc2o1)N1CCN(c2c(Cl)cncc2Cl)CC1` (stereo not drawn) [Compound 2, 1-(benzofuran-2-yl(1-(tert-butyl)-1H-tetrazol-5-yl)methyl)-4-(3,5-dichloropyridin-4-yl)piperazine], the inhibition at 10 µM is 108% and the IC50 amounted to 557 nM.

For the compound `CCCCn1nnnc1CN1CCN(c2c(Cl)cncc2Cl)CC1` [Compound 5, 1-((1-butyl-1H-tetrazol-5-yl)methyl)-4-(3,5-dichloropyridin-4-yl)piperazine], the inhibition at 10 µM was 95.2% and half-maximal inhibition (IC50) required 1710 nM.

For the compound `CC(C)(C)n1nnnc1C(c1cccc2ccccc12)N1CCN(c2c(Cl)cncc2Cl)CC1` (stereo not drawn) [Compound 39, 1-((1-(tert-butyl)-1H-tetrazol-5-yl)(naphthalen-1-yl)methyl)-4-(3,5-dichloropyridin-4-yl)piperazine], the inhibition at 10 µM came to 107%.

As to `Cc1ccc(C(c2nnnn2C(C)(C)C)N2CCN(c3c(Cl)cncc3Cl)CC2)o1` (stereo not drawn) [Compound 49, 1-((1-(tert-butyl)-1H-tetrazol-5-yl)(5-methylfuran-2-yl)methyl)-4-(3,5-dichloropyridin-4-yl)piperazine], the inhibition at 10 µM is 100%.

As to `Oc1cccc(C(c2nnnn2C2CCCC2)N2CCN(c3c(Cl)cncc3Cl)CC2)c1` (stereo not drawn) [Compound 17, 3-((1-cyclopentyl-1H-tetrazol-5-yl)(4-(3,5-dichloropyridin-4-yl)piperazin-1-yl)methyl)phenol], the inhibition at 10 µM was 108%.

With `CC(C)(C)n1nnnc1C(c1ccncc1)N1CCN(c2c(Cl)cncc2Cl)CC1` (stereo not drawn) [Compound 31, 1-((1-(tert-butyl)-1H-tetrazol-5-yl)(pyridin-4-yl)methyl)-4-(3,5-dichloropyridin-4-yl)piperazine], the inhibition at 10 µM was determined as 91.4%.

On to `Oc1cccc(C(c2nnnn2Cc2ccccc2)N2CCN(c3c(Cl)cncc3Cl)CC2)c1` (stereo not drawn) [Compound 19, 3-((1-benzyl-1H-tetrazol-5-yl)(4-(3,5-dichloropyridin-4-yl)piperazin-1-yl)methyl)phenol], for which the inhibition at 10 µM came to 120% and half-maximal inhibition (IC50) was put at 134 nM.

In the case of `CCCCn1nnnc1C(c1cccc(O)c1)N1CCN(C(=O)OC(C)(C)C)CC1` (stereo not drawn) [Compound 56, tert-butyl 4-((1-butyl-1H-tetrazol-5-yl)(3-hydroxyphenyl)methyl)piperazine-1-carboxylate], the inhibition at 10 µM is 24.6%.

As to `CCCCn1nnnc1C(c1cccc(O)c1)N1CCN(c2ccccc2)CC1` (stereo not drawn) [Compound 67, 3-((1-butyl-1H-tetrazol-5-yl)(4-phenylpiperazin-1-yl)methyl)phenol], the inhibition at 10 µM was found to be 63.9%.

As to `CC(C)n1nnnc1C(c1ccco1)N1CCN(c2c(Cl)cncc2Cl)CC1` (stereo not drawn) [Compound 50, 1-(3,5-dichloropyridin-4-yl)-4-(furan-2-yl(1-isopropyl-1H-tetrazol-5-yl)methyl)piperazine], the inhibition at 10 µM is 96.7%.

As for `CCCCn1nnnc1C(c1cccc(O)c1)N1CCN(C(=O)OCc2ccccc2)CC1` (stereo not drawn) [Compound 57, benzyl 4-((1-butyl-1H-tetrazol-5-yl)(3-hydroxyphenyl)methyl)piperazine-1-carboxylate], the inhibition at 10 µM was 24.9%.

For `CCCCn1nnnc1C(c1cccs1)N1CCN(c2c(Cl)cncc2Cl)CC1` (stereo not drawn) [Compound 10, 1-((1-butyl-1H-tetrazol-5-yl)(thiophen-2-yl)methyl)-4-(3,5-dichloropyridin-4-yl)piperazine], the inhibition at 10 µM came to 98.2%.

Take `CC(C)(C)n1nnnc1C(c1ccc2ccccc2c1)N1CCN(c2c(Cl)cncc2Cl)CC1` (stereo not drawn) [Compound 41, 1-((1-(tert-butyl)-1H-tetrazol-5-yl)(naphthalen-2-yl)methyl)-4-(3,5-dichloropyridin-4-yl)piperazine]: the inhibition at 10 µM came out at 108%.

As for `CCCCn1nnnc1C(c1cc2ccccc2o1)N1CCN(c2c(Cl)cncc2Cl)CC1` (stereo not drawn) [Compound 28, 1-(benzofuran-2-yl(1-butyl-1H-tetrazol-5-yl)methyl)-4-(3,5-dichloropyridin-4-yl)piperazine], the inhibition at 10 µM is 96.8%.

Consider `CCCCn1nnnc1C(c1ccc(F)cc1)N1CCN(c2c(Cl)cncc2Cl)CC1` (stereo not drawn) [Compound 36, 1-((1-butyl-1H-tetrazol-5-yl)(4-fluorophenyl)methyl)-4-(3,5-dichloropyridin-4-yl)piperazine], for which the inhibition at 10 µM stood at 102%.

`CCCCn1nnnc1C(C)N1CCN(c2c(Cl)cncc2Cl)CC1` (stereo not drawn) [Compound 6, 1-(1-(1-butyl-1H-tetrazol-5-yl)ethyl)-4-(3,5-dichloropyridin-4-yl)piperazine]: the inhibition at 10 µM was 95.3%.

With `CC(C)(C)n1nnnc1C(/C=C/c1ccccc1)N1CCN(c2c(Cl)cncc2Cl)CC1` (stereo not drawn) [Compound 43, (E)-1-(1-(1-(tert-butyl)-1H-tetrazol-5-yl)-3-phenylallyl)-4-(3,5-dichloropyridin-4-yl)piperazine], the inhibition at 10 µM was 111%.

`Cc1cccc(C)c1-n1nnnc1C(c1cccc(O)c1)N1CCN(c2c(Cl)cncc2Cl)CC1` (stereo not drawn) [Compound 20, 3-((4-(3,5-dichloropyridin-4-yl)piperazin-1-yl)(1-(2,6-dimethylphenyl)-1H-tetrazol-5-yl)methyl)phenol]: the inhibition at 10 µM came to 111%.

For the compound `CCCCn1nnnc1C(c1cccc(O)c1)N1CCN(c2c(C)cccc2C)CC1` (stereo not drawn) [Compound 55, 3-((1-butyl-1H-tetrazol-5-yl)(4-(2,6-dimethylphenyl)piperazin-1-yl)methyl)phenol], the inhibition at 10 µM was 109%.

As for `CCCCn1nnnc1C(c1cccc(O)c1)N1CCN(c2cc(C)ccc2C)CC1` (stereo not drawn) [Compound 72, 3-((1-butyl-1H-tetrazol-5-yl)(4-(2,5-dimethylphenyl)piperazin-1-yl)methyl)phenol], the inhibition at 10 µM was determined as 112% and half-maximal inhibition (IC50) required 790 nM.

In the case of `CCCCn1nnnc1C(c1cccc(O)c1)N1CCN(C/C=C/c2ccccc2)CC1` (stereo not drawn) [Compound 71, (E)-3-((1-butyl-1H-tetrazol-5-yl)(4-cinnamylpiperazin-1-yl)methyl)phenol], the inhibition at 10 µM stood at 11.9%.

For the compound `CCCCn1nnnc1C(c1cccc(O)c1)N1CCN(c2cccc(C(F)(F)F)n2)CC1` (stereo not drawn) [Compound 58, 3-((1-butyl-1H-tetrazol-5-yl)(4-(6-(trifluoromethyl)pyridin-2-yl)piperazin-1-yl)methyl)phenol], the inhibition at 10 µM came to 58.4%.
